“And” between values parts separate entries of the source, which are not always exact repeats. Equal entries are not always repeated.
Target: NA of B/Tokyo/UT‐AC032/2018 (G407S) (Influenza B virus, UniProt A0A1W5M8K7, G407S)
Assay type: biochemical

| Compound | susceptibility to NA inhibitor (in words) | fold differences in IC50 | IC50 (read-out: IC50 values of NA inhibitors) |
| --- | --- | --- | --- |
| [H]/N=C(\N)N[C@H]1C=C(C(=O)O)O[C@@H]([C@H](OC)[C@H](O)CO)[C@@H]1NC(C)=O [Laninamivir] | marked reduction in susceptibility |  |  |
| CCC(CC)O[C@@H]1C=C(C(=O)O)C[C@H](N)[C@H]1NC(C)=O [Oseltamivir carboxylate] | moderately reduced susceptibility |  |  |
| CC(=O)N[C@H]1[C@H]([C@H](O)[C@H](O)CO)OC(C(=O)O)=C[C@@H]1N=C(N)N [Zanamivir] | marked reduction in susceptibility |  |  |
| Peramivir | marked reduction in susceptibility | 64 fold and 32.1 ± 12.9 (64.2) fold | 0.0321 µM |

— publication PMC7182600 (Influenza and Other Respiratory Viruses, 2020)
